One may read the ED50 as the midpoint of the dose-response relation. In general, AUC refers to concentration integrated over time. Higher therefore signals high exposure. As usually defined, the bioavailability is the share of a dose that reaches the circulation, judged against a reference dose that is usually intravenous. By half-life is commonly meant how long it takes for the measured level to halve. Higher therefore signals slow loss.

Data set [1] has as its system Staphylococcus aureus. In words: Antimicrobial activity against Staphylococcus aureus infected in intravenously dosed mouse model of bacteremia. The format is functional. Conditions: iv.
Data set [2] can be described thus: AUC in C57BL/6 mouse at 1 mg/kg, iv. The format is ADME, organism-based. Also on record: dose 1 mg/kg, route intravenous. The note with it: plasma.
The test system of the next data set is Haemophilus influenzae. In words: Antimicrobial activity against Haemophilus influenzae ATCC 49247 by micro broth dilution or agar based method. The format is functional. In general terms: Dilution methods test growth across graded concentrations, often in twofold steps.
Another data set has as its system Enterococcus faecium. In words: Antimicrobial activity against vancomycin-resistant Enterococcus faecium A2373 expressing VanA by micro broth dilution or agar based method. The format is functional. Conditions: Enterococcus faecium, A2373; read-out: MIC.
Data set [3] has as its system Staphylococcus aureus. In words: Antimicrobial activity against Staphylococcus aureus Smith by micro broth dilution or agar based method. The format is functional. Conditions: Staphylococcus aureus, Smith; read-out: MIC.
The next data set concerns Acinetobacter baumannii. In words: Antimicrobial activity against Acinetobacter baumannii IID876 by micro broth dilution or agar based method. The note with it: Acinetobacter baumannii, IID876; read-out: MIC. The format is functional.
A further data set has as its system Streptococcus pneumoniae. In words: Antimicrobial activity against Streptococcus pneumoniae IID554 by micro broth dilution or agar based method. The data set is classed as functional. The note with it: Streptococcus pneumoniae, IID554; read-out: MIC.
The nature of data set [4]: Oral bioavailability in C57BL/6 mouse at 2 mg/kg. Conditions: in vivo. The data set is classed as ADME, organism-based.
Data set [5] deals with Staphylococcus aureus. In words: Antimicrobial activity against Staphylococcus aureus infected in orally dosed mouse model of bacteremia. The note with it: po. The data set is classed as functional.
In another data set the test system is Escherichia coli. In words: Antimicrobial activity against Escherichia coli ATCC 25922 by micro broth dilution or agar based method. The data set is classed as functional. Conditions: Escherichia coli, ATCC 25922; read-out: MIC.
Data set [6] is described as follows: Plasma clearance in C57BL/6 mouse at 1 mg/kg, iv or 2 mg/kg, po. The format is ADME, organism-based.
For a further data set, the system named is Moraxella catarrhalis. In words: Antimicrobial activity against Moraxella catarrhalis ATCC 25238 by micro broth dilution or agar based method. The data set is classed as functional.
For another data set, the system named is Enterococcus faecalis. In words: Antimicrobial activity against Enterococcus faecalis ATCC 29212 MB by micro broth dilution or agar based method. The data set is classed as functional. The note with it: Enterococcus faecalis, ATCC 29212 MB; read-out: MIC.
The nature of data set [7]: Volume of distribution at steady state in C57BL/6 mouse at 1 mg/kg, iv or 2 mg/kg, po. Conditions: in vivo, read-out: Vdss. The data set is classed as ADME, organism-based.
The subject of the next data set is Pseudomonas aeruginosa. In words: Antimicrobial activity against Pseudomonas aeruginosa PAO1 by micro broth dilution or agar based method. The format is functional. Conditions: Pseudomonas aeruginosa, PAO1; read-out: MIC.
A short description of data set [8]: Half life in C57BL/6 mouse at 1 mg/kg, iv or 2 mg/kg, po. The data set is classed as ADME, organism-based. The note with it: in vivo.
For data set [9], the system named is Staphylococcus aureus. In words: Antimicrobial activity against quinolone-resistant Staphylococcus aureus MS5935. The format is functional.
Data set [10] concerns Staphylococcus aureus. In words: Ratio of MIC for quinolone-resistant Staphylococcus aureus MS5935 to MIC for quinolone-[…]. The format is functional.
Data set [11] relates to Staphylococcus aureus. In words: Antimicrobial activity against quinolone-sensitive Staphylococcus aureus MS5935.
The test system of data set [12] is Staphylococcus aureus. In words: Antimicrobial activity against Staphylococcus aureus infected in mouse model of bacteremia at 50 mg/kg, iv. The data set is classed as functional, organism-based. Also on record: dose 50 mg/kg.
The subject of data set [13] is Staphylococcus aureus. In words: Antimicrobial activity against Staphylococcus aureus infected in mouse model of bacteremia at 50 mg/kg, po. The format is functional, organism-based. Also on record: dose 50 mg/kg.

In brackets after ≈: the same amount, converted by molar mass. Activity calls are given as the source filed them. The rule behind the calls is not given here.

On to `O=C1COc2ccc(CNC34CCC(C[C@]5(O)Cn6c(=O)ccc7ncc(F)c5c76)(CC3)OC4)nc2N1`, for which the values for the ED50 in the data set with Staphylococcus aureus [1] and with Staphylococcus aureus [5] were under 3.2 mg/kg and 27 mg/kg, respectively. In data set [2], this compound showed an AUC of 0.45 µM·h. Further, the MIC against Haemophilus influenzae came to 1 µg/mL (≈ 1.97 µM); in the data set on Enterococcus faecium it was 8 µg/mL (≈ 15.8 µM); in the data set on Staphylococcus aureus [3], 0.25 µg/mL (≈ 0.493 µM); with Acinetobacter baumannii, 2 µg/mL (≈ 3.94 µM); with Streptococcus pneumoniae, 0.25 µg/mL (≈ 0.493 µM); in the data set with Escherichia coli it was 4 µg/mL (≈ 7.88 µM). In addition, the MIC in the data set on Moraxella catarrhalis was 0.25 µg/mL (≈ 0.493 µM); in the data set on Enterococcus faecalis, 4 µg/mL (≈ 7.88 µM); with Pseudomonas aeruginosa it was 16 µg/mL (≈ 31.5 µM). For the same compound, in [4], the bioavailability came out at 40%. In addition, the clearance in data set [6] was determined as 65 mL/min/kg. Also, in data set [7], the Vd turned out to be 11.8 L/kg. Moreover, the half-life in [8] is 4 h.

For `C[C@H]1COc2c(N3CCN(C)CC3)c(F)cc3c(=O)c(C(=O)O)cn1c23.C[C@H]1COc2c(N3CCN(C)CC3)c(F)cc3c(=O)c(C(=O)O)cn1c23.O` [LEVOFLOXACIN], the MIC was over 16 µg/mL in the data set with Staphylococcus aureus [9] and 0.25 µg/mL against Staphylococcus aureus [11]. Also, the Ratio in the data set on Staphylococcus aureus [10] is reported as under 4.

Turning to `O=C1COc2ccc(CNC34CCC(C[C@@]5(O)Cn6c(=O)ccc7ncc(F)c5c76)(CC3)OC4)nc2N1`, the outcome in the data set with Staphylococcus aureus [12] and with Staphylococcus aureus [13] was inactive. In addition, the MIC is 32 µg/mL (≈ 63.1 µM) in the data set with Enterococcus faecium; 2 µg/mL (≈ 3.94 µM) with Staphylococcus aureus [3]; 32 µg/mL (≈ 63.1 µM) in the data set on Acinetobacter baumannii; 4 µg/mL (≈ 7.88 µM) with Streptococcus pneumoniae; 16 µg/mL (≈ 31.5 µM) in the data set on Escherichia coli; 8 µg/mL (≈ 15.8 µM) with Enterococcus faecalis. Further, the MIC in the data set on Pseudomonas aeruginosa was found to be 32 µg/mL (≈ 63.1 µM).

For the origin of these results see ChEMBL document CHEMBL3400001, “Tricyclic 1,5-naphthyridinone oxabicyclooctane-linked novel bacterial topoisomerase inhibitors as broad-spectrum antibacterial agents-SAR of left-hand-side moiety (Part-2)” (Bioorg Med Chem Lett, 2015).
